Nine compounds from patent publication US12358915B2, “METTL3 inhibitory compounds” (STORM THERAPEUTICS LTD., priority 2019, dated 2025) can be followed below.

For experiment [1], the system named is MOLM-13 cells. In words: MOLM13 CTG - analysis of cell proliferation (Cell Titre Glo). It is filed as cell-based. The following applies: Homo sapiens, geometric mean, read-out: CTG MOLM13 cells IC50 GEOMEAN.
Experiment [2] addresses T1, METTL3/14 (Homo sapiens, UniProt Q86U44).
T1 construct: The enzyme used was full-length his-tagged METTL3; His; made in house
In words: METTL3/14 methyltransferase assay (METTL3_14 RFMS, RapidFire mass spectrometry).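 Note: recombinant His-tagged METTL3 with FLAG-tagged METTL14 from baculovirus, SAH product quantified by mass spectrometry against isotope-labelled internal standards, 60 min at room temperature, scaled between no-RNA and DMSO-only wells.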 In kind it is biochemical. As to conditions: read-out: METTL3_14 RFMS IC50.

Experiment [3] deals with Caov-3 cells. Kind of experiment: Caov3 CTG assay - proliferation assay. In kind it is cell-based. The following applies: Homo sapiens, 120 hours treatment, 30 μM top concentration, CellTiter-Glo, geometric mean, read-out: CTG Caov3 cells IC50 GEOMEAN.
Procedure: Upon treatment, Coav-3 cells were incubated for 10 min at RT with the CellTiter-Glo reagent (G7571, Promega). Measurement of the luminescence signal was performed on a microplate reader (Ensight, PerkinElmer).
[4] abbreviates: 5 nM METTL3/14, 0.2 μM RNA substrate, 0.5 μM SAM, lower limit of the assay IC50=5 nM, Compounds 266-351.

Where two headings read alike, the source gives them in different places. A value given as a limit tells only on which side of the number the result lay.

T1 sequence (Q86U44 whole entry): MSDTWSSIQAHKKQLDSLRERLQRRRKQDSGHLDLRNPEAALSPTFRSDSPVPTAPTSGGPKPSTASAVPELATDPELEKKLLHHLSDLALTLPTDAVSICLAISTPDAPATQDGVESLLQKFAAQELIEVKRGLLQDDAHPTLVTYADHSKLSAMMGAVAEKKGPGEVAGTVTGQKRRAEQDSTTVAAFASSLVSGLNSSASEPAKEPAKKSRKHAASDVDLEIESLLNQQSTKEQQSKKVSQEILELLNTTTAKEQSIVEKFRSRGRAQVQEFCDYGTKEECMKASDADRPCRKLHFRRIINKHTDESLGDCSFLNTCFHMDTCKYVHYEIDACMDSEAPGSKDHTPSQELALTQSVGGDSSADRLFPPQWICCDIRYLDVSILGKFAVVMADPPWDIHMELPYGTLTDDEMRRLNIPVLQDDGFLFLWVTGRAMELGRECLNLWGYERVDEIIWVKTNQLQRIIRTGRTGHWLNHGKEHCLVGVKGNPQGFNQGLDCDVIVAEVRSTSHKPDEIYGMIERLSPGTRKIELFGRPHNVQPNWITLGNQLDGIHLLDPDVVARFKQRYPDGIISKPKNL
T1 sequence (Q9HCE5 whole entry partner): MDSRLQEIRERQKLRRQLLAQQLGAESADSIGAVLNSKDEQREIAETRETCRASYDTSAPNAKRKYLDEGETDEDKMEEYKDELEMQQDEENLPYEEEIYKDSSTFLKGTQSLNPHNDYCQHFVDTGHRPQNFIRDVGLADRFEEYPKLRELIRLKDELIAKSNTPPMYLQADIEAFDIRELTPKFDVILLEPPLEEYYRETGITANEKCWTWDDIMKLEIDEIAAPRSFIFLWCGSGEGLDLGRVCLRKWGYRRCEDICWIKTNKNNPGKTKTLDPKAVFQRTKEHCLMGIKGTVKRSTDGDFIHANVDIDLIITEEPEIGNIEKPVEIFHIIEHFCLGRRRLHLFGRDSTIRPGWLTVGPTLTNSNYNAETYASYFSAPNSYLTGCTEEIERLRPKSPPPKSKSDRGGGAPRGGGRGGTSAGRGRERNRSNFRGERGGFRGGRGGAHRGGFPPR

Turning to `COc1cc(-c2cn(Cc3cn4cc(CNCC5CCC5)ccc4n3)nn2)c2cn[nH]c2c1` [Example 270, N-(cyclobutylmethyl)-1-[2-[[4-(6-methoxy-1H-indazol-4-yl)triazol-1-yl]methyl]imidazo[1,2-a]pyridin-6-yl]methanamine], the results for the 50% inhibitory concentration (IC50) in experiment [1], in experiment [2] and in experiment [3] were 431 nM, ≤ 3.63 nM and 161 nM, respectively.
Consider `COc1ccc2[nH]ncc2c1-c1cn(Cc2cn3cc(CNCC4CCC4)ccc3n2)nn1` [Example 271, N-(cyclobutylmethyl)-1-[2-[[4-(5-methoxy-1H-indazol-4-yl)triazol-1-yl]methyl]imidazo[1,2-a]pyridin-6-yl]methanamine], for which the figures for the IC50 in experiment [1], in experiment [2] (setting [4]) and in experiment [3] were 1170 nM, 6.1 nM and 558 nM, respectively.
Consider `Clc1cc(-c2cn(Cc3cn4cc(CNCC5CCC5)ccc4n3)nn2)c2cn[nH]c2c1` [Example 302, 1-[2-[[4-(6-chloro-1H-indazol-4-yl)triazol-1-yl]methyl]imidazo[1,2-a]pyridin-6-yl]-N-(cyclobutylmethyl)methanamine], for which the IC50 is 629 nM in experiment [1], ≤ 4.35 nM in experiment [2] and 211 nM in experiment [3].
With `Fc1ccc(-c2cn(Cc3cn4cc(CNCC5CCCCC5)ccc4n3)nn2)c2cn[nH]c12` [Example 307, N-(cyclohexylmethyl)-1-[2-[[4-(7-fluoro-1H-indazol-4-yl)triazol-1-yl]methyl]imidazo[1,2-a]pyridin-6-yl]methanamine], the IC50 was 3680 nM in experiment [1], 6.72 nM in experiment [2] (setting [4]) and 1770 nM in experiment [3].
The corresponding values for `c1cc(-c2cn(Cc3cn4cc(CNCC5CCC5)ccc4n3)nn2)c2cn[nH]c2c1` [Example 327, N-(cyclobutylmethyl)-1-[2-[[4-(1H-indazol-4-yl)triazol-1-yl]methyl]imidazo[1,2-a]pyridin-6-yl]methanamine] are 1620 nM, 5.78 nM and 572 nM.
The corresponding values for `FC1(F)CC(CNCc2ccc3nc(Cc4cn(-c5cccc6[nH]ncc56)nn4)cn3c2)C1` [Example 337, [(3,3-difluorocyclobutyl)methyl][(2-{[1-(1H-indazol-4-yl)-1H-1,2,3-triazol-4-yl]methyl}imidazo[1,2-a]pyridin-6-yl)methyl]amine] are 5170 nM, 16.3 nM and 3210 nM.
The corresponding values for `N#Cc1cc(-c2cn(Cc3cn4cc(CNCC5CCC5)ccc4n3)nn2)c2cn[nH]c2c1` [Example 338, 4-{1-[(6-{[(cyclobutylmethyl)amino]methyl}imidazo[1,2-a]pyridin-2-yl)methyl]-1H-1,2,3-triazol-4-yl}-1H-indazole-6-carbonitrile] are 1190 nM, 7.49 nM and 1110 nM.
Take `c1cc(-c2cn(Cc3cn4cc(CNCC5CCC5)ccc4n3)cn2)c2cn[nH]c2c1` [Example 339, N-(cyclobutylmethyl)-1-[2-[[4-(1H-indazol-4-yl)imidazol-1-yl]methyl]imidazo[1,2-a]pyridin-6-yl]methanamine]: the results for the concentration for half-maximal inhibition (IC50) in experiment [1], in experiment [2] (setting [4]) and in experiment [3] were 3070 nM, 10.1 nM and 849 nM, respectively.
For the compound `COc1cc(-c2cn(Cc3cn4cc(CNCC5(OC)CCC5)ccc4n3)nn2)c2cn[nH]c2c1` [Example 343, N-[(1-methoxycyclobutyl)methyl]-1-[2-[[4-(6-methoxy-1H-indazol-4-yl)triazol-1-yl]methyl]imidazo[1,2-a]pyridin-6-yl]methanamine], the values for the IC50 in experiment [1], in experiment [2] (setting [4]) and in experiment [3] were 930 nM, 6.1 nM and 554 nM, respectively.
